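In this assay, cells in 96-well plates receive the compound at five concentrations for 48 hours. Endpoints are linearly interpolated between the surrounding concentrations. Here, GI50 denotes the concentration required for 50% inhibition of growth.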 The source made the active and inactive calls. Cut-off read from the data, not from the text of the source: active = GI50 up to about 1.1 µM and inactive = higher.
Tests used:
Assay in all cases: NCI tumour cell line growth inhibition, 48 h
SNB-19 = test system: SNB-19
BT-549 = test system: BT-549
SK-MEL-5 = test system: SK-MEL-5
CAKI-1 = test system: CAKI-1
K562 = test system: K562
HOP-62 = test system: HOP-62
LOX IMVI = test system: LOX IMVI
Hs-578T = test system: Hs-578T
NCI-H522 = test system: NCI-H522
786-0 = test system: 786-0
NCI-H460 = test system: NCI-H460
MDA-N = test system: MDA-N
ACHN = test system: ACHN
SF-268 = test system: SF-268
UACC-62 = test system: UACC-62
Malme-3M = test system: Malme-3M
SF-539 = test system: SF-539
NCI-H226 = test system: NCI-H226
RXF 393 = test system: RXF 393

Measured: GI50

OC(c1ccccc1)(c1ccccc1)c1nccc2ccccc12
inactive: SNB-19 27.9 µM | BT-549 14.3 µM | SK-MEL-5 14.1 µM | CAKI-1 20.1 µM | K562 > 10 µM | HOP-62 18.9 µM | LOX IMVI 17.6 µM | Hs-578T 28.5 µM | NCI-H522 16.7 µM | 786-0 55 µM | NCI-H460 17.3 µM | MDA-N 30.1 µM | ACHN 37.6 µM | SF-268 44.2 µM | UACC-62 21.5 µM | Malme-3M 30 µM

COc1cc([C@H]2CC(=O)C[C@H](c3cc(OC)c(OC)c(OC)c3)C23C(=O)c2ccccc2C3=O)cc(OC)c1OC
inactive: SF-539 45.7 µM | SNB-19 > 100 µM | BT-549 91.4 µM | SK-MEL-5 > 100 µM | NCI-H226 54.5 µM | CAKI-1 > 100 µM | K562 44.2 µM | HOP-62 51.5 µM | RXF 393 32.5 µM | Hs-578T 46.6 µM | NCI-H522 25 µM | 786-0 77.6 µM | NCI-H460 91.2 µM | ACHN 59.4 µM | SF-268 > 100 µM | UACC-62 43.1 µM | Malme-3M > 100 µM

CC(C)(C)OC/C=C1\C(=O)O[C@H]2C[C@@H](O[Si](C)(C)C(C)(C)C)C[C@@H]12
inactive: SNB-19 > 100 µM | BT-549 > 100 µM | SK-MEL-5 > 100 µM | NCI-H226 > 100 µM | CAKI-1 > 100 µM | K562 26.1 µM | HOP-62 85.3 µM | RXF 393 32.2 µM | LOX IMVI 98.2 µM | NCI-H522 33.5 µM | 786-0 > 100 µM | NCI-H460 > 100 µM | MDA-N 90.4 µM | ACHN > 100 µM | SF-268 > 100 µM | Malme-3M > 100 µM

O=C(CCCN1CCC2(CC1)CC(=O)N(N1CCOCC1)C2=O)c1ccccc1
inactive: SF-539 > 100 µM | SNB-19 > 100 µM | BT-549 14.6 µM | SK-MEL-5 > 100 µM | NCI-H226 > 100 µM | CAKI-1 > 100 µM | K562 > 100 µM | HOP-62 > 100 µM | RXF 393 > 100 µM | LOX IMVI > 100 µM | NCI-H522 > 100 µM | 786-0 > 100 µM | MDA-N > 100 µM | ACHN > 100 µM | SF-268 > 100 µM | UACC-62 > 100 µM | Malme-3M > 100 µM

COc1ccc(Nc2ccc3ccccc3c2-c2c(O)ccc3ccccc23)cc1
inactive: SF-539 25.7 µM | SNB-19 17.3 µM | BT-549 24.4 µM | SK-MEL-5 17 µM | NCI-H226 16.6 µM | CAKI-1 16.1 µM | K562 7.23 µM | HOP-62 12.6 µM | RXF 393 20.2 µM | LOX IMVI 17.9 µM | NCI-H522 18.2 µM | 786-0 17.1 µM | NCI-H460 16.4 µM | MDA-N 12.6 µM | ACHN 16.2 µM | SF-268 17.8 µM | UACC-62 29.9 µM

C=Cn1c([N+](=O)[O-])cnc1/C=C/c1ccc(C(=O)OCCN2CCOCC2)cc1
inactive: SF-539 > 100 µM | SNB-19 > 100 µM | BT-549 > 100 µM | SK-MEL-5 51.9 µM | NCI-H226 > 100 µM | CAKI-1 > 100 µM | K562 > 100 µM | HOP-62 > 100 µM | RXF 393 > 100 µM | LOX IMVI > 100 µM | Hs-578T 88.1 µM | NCI-H522 > 100 µM | 786-0 > 100 µM | NCI-H460 > 100 µM | ACHN > 100 µM | SF-268 > 100 µM | UACC-62 > 100 µM | Malme-3M 61 µM

NC(=O)c1nnc2cc(F)c(F)cc2c1N
inactive: SF-539 36.4 µM | SNB-19 30.8 µM | BT-549 15.7 µM | SK-MEL-5 87.1 µM | NCI-H226 11.9 µM | CAKI-1 61.2 µM | K562 > 100 µM | HOP-62 18.5 µM | LOX IMVI 57.3 µM | Hs-578T 26.7 µM | NCI-H522 18.8 µM | 786-0 32.4 µM | NCI-H460 58.3 µM | MDA-N > 100 µM | ACHN 52.1 µM | SF-268 21.6 µM | UACC-62 31.3 µM | Malme-3M 29.7 µM

Cc1ccc(S(=O)(=O)N2CCN3C(=O)c4ccccc4C32c2ccc(F)cc2)cc1 (stereo unspecified)
inactive: SNB-19 > 100 µM | BT-549 > 100 µM | SK-MEL-5 17.7 µM | NCI-H226 64 µM | CAKI-1 57.3 µM | K562 42.4 µM | HOP-62 > 100 µM | RXF 393 65.2 µM | Hs-578T > 100 µM | NCI-H522 55.8 µM | 786-0 > 100 µM | NCI-H460 67.6 µM | MDA-N 27.5 µM | ACHN 95.1 µM | SF-268 98.4 µM | UACC-62 44.9 µM | Malme-3M > 100 µM

OB(O)c1ccccc1C#Cc1ccccc1B(O)O
inactive: SF-539 18.4 µM | SNB-19 21.8 µM | BT-549 12.2 µM | SK-MEL-5 14.8 µM | CAKI-1 3.09 µM | K562 38.3 µM | HOP-62 23.9 µM | RXF 393 11.3 µM | LOX IMVI 19 µM | Hs-578T 14.6 µM | NCI-H522 14.6 µM | 786-0 28.4 µM | NCI-H460 14.4 µM | MDA-N 21.2 µM | ACHN 20.7 µM | SF-268 11.5 µM | UACC-62 14.5 µM | Malme-3M 17.1 µM

Cn1c(-c2cccs2)cc(-c2cccs2)c1-c1ccsc1
inactive: SF-539 > 100 µM | SNB-19 70.3 µM | BT-549 > 100 µM | SK-MEL-5 27.2 µM | NCI-H226 > 100 µM | CAKI-1 > 100 µM | K562 > 100 µM | HOP-62 53 µM | RXF 393 3.64 µM | LOX IMVI > 100 µM | Hs-578T > 100 µM | 786-0 > 100 µM | NCI-H460 > 100 µM | MDA-N > 100 µM | ACHN > 100 µM | SF-268 > 100 µM | UACC-62 > 100 µM

O=C1Nc2ccc(Cl)cc2C(=O)N2CCC[C@@H]12
inactive: SNB-19 > 100 µM | BT-549 > 100 µM | SK-MEL-5 > 100 µM | NCI-H226 > 100 µM | CAKI-1 > 100 µM | K562 > 100 µM | HOP-62 > 100 µM | RXF 393 60.3 µM | LOX IMVI > 100 µM | NCI-H522 > 100 µM | 786-0 > 100 µM | NCI-H460 > 100 µM | MDA-N > 100 µM | ACHN > 100 µM | SF-268 > 100 µM | UACC-62 > 100 µM | Malme-3M > 100 µM

C/C=C1\CN2CCC34c5ccccc5N(C)C35OCC4(C(=O)OC)C1CC25 (stereo unspecified)
inactive: SF-539 83 µM | SNB-19 59.8 µM | BT-549 34.3 µM | SK-MEL-5 18.4 µM | CAKI-1 99.3 µM | K562 48.9 µM | HOP-62 65.8 µM | LOX IMVI 14 µM | Hs-578T 54.8 µM | NCI-H522 47.8 µM | 786-0 76.2 µM | NCI-H460 25.5 µM | MDA-N 46.5 µM | ACHN 90.4 µM | SF-268 > 100 µM | UACC-62 61 µM

COC(=O)[C@]1(c2cc3ccccc3[nH]2)CC2CN(C(=O)OCc3ccccc3)C1C=C2OC (stereo partly specified)
inactive: SF-539 25.4 µM | SNB-19 42.1 µM | BT-549 31 µM | NCI-H226 23.1 µM | CAKI-1 28.5 µM | K562 37.4 µM | HOP-62 31 µM | RXF 393 22.7 µM | LOX IMVI 34 µM | NCI-H522 27.2 µM | 786-0 36.7 µM | NCI-H460 33.1 µM | MDA-N 32.3 µM | ACHN 25.8 µM | SF-268 37.2 µM | UACC-62 16.8 µM | Malme-3M 28.9 µM

Cc1c2cccc-2c(N(C)C)cc2c1[nH]c1ccccc12
inactive: SF-539 2.11 µM | SNB-19 9.27 µM | BT-549 2.6 µM | SK-MEL-5 5.64 µM | NCI-H226 5.81 µM | CAKI-1 17.5 µM | HOP-62 2.71 µM | LOX IMVI 3.94 µM | Hs-578T 3.57 µM | 786-0 2.97 µM | NCI-H460 9.16 µM | MDA-N 6.56 µM | ACHN 3.19 µM | SF-268 5.13 µM | Malme-3M 3.3 µM

CC(=O)C(CN1C(=O)c2ccccc2C1=O)C(C)=O
inactive: SF-539 > 100 µM | SNB-19 > 100 µM | BT-549 > 100 µM | SK-MEL-5 > 100 µM | NCI-H226 > 100 µM | CAKI-1 > 100 µM | K562 > 100 µM | HOP-62 > 100 µM | RXF 393 23.1 µM | Hs-578T > 100 µM | NCI-H522 > 100 µM | 786-0 > 100 µM | NCI-H460 > 100 µM | MDA-N > 100 µM | ACHN > 100 µM | SF-268 > 100 µM | UACC-62 > 100 µM

Cn1ccc2c(c1=O)C(=O)OC2(C)C [CERPEGIN]
inactive: SF-539 > 100 µM | SNB-19 25.5 µM | BT-549 > 100 µM | SK-MEL-5 > 100 µM | NCI-H226 > 100 µM | CAKI-1 > 100 µM | K562 > 100 µM | HOP-62 > 100 µM | RXF 393 > 100 µM | LOX IMVI > 100 µM | Hs-578T > 100 µM | 786-0 > 100 µM | NCI-H460 > 100 µM | MDA-N > 100 µM | ACHN > 100 µM | SF-268 > 100 µM | UACC-62 > 100 µM | Malme-3M 65.6 µM
